Assay results as given in patent US8207189B2, “Compound having affinity for amyloid” (Nihon Medi-Physics Co., Ltd., priority 2007, dated 2012).

How the values were obtained:
[1] = partition coefficient based on the octanol extraction method; assay type: physicochemical; details: octanol / 10 mmol/L phosphate buffer pH 7.4
Method: Partition coefficients based on the octanol extraction method (hereinafter referred to as log Poctanol) were measured, which are generally known as an indicator of permeability of compounds through the blood-brain barrier (hereinafter referred to as BBB).
A diethyl ether solution of Compound 1 prepared in Example 3 (Example 8), a diethyl ether solution of Compound 2 prepared in Example 6 (Example 9), and a diethyl ether solution of [^123I]-IMPY prepared in Reference Example 1 (Comparative Example 4) were each diluted with 10 mg/mL ascorbic acid-containing physiological saline solution, and adjusted to a radioactive concentration of 20-30 MBq/mL. To 2 mL of octanol, 10 μL each of the prepared sample solutions was added, 2 mL of 10 mmol/L phosphate buffer (pH 7.4) was added, followed by stirring for 30 seconds. After the mixture was centrifuged with a low-speed centrifuge (2000 rpm×60 min.), the octanol layer and the water layer were sampled each in an amount of 1 mL, and subjected to measurement of radioactivity count with an autowell gamma system (Type: ARC-301B, manufactured by Aloka). Using the obtained radioactivity count, log Poctanol was calculated in accordance with the equation (2).
A diethyl ether solution (Example 20) of Compound 4 prepared in Example 16, a diethyl ether solution (Example 21) of Compound 6 prepared in Example 19, and a diethyl ether solution (Comparative Example 7) of [^123I]-IMPY were each diluted with a 10 mg/mL ascorbic acid-containing physiological saline solution to adjust to a radioactive concentration of 20-30 MBq/mL. To 2 mL of octanol, 10 μL each of the prepared sample solution was added, and 2 mL of 10 mmol/L phosphate buffer (pH 7.4) was further added, followed by stirring for 30 seconds. After the mixture was centrifuged with a low-speed centrifuge (2000 rpm×60 min.), the octanol layer and the water layer were sampled each in an amount of 1 mL, and subjected to measurement of radioactivity count with an autowell gamma system (Type: ARC-301B, manufactured by Aloka). Using the obtained radioactivity count, log Poctanol was calculated in accordance with the equation (4).

[2] = transferability into brain and clearance after intravenous injection; assay type: in vivo, rat; details: for Radioactive distribution per unit weight in brain, After 2 min. / Radioactive distribution per unit weight in brain, After 5 min. / Radioactive distribution per unit weight in brain, After 30 min. / Radioactive distribution per unit weight in brain, After 60 min.: male Wistar rats, intravenous injection; for radioactive accumulation in brain two minutes after the injection (in words) / clearance from brain in 60 minutes (in words): rats, intravenous; for Radioactive distribution per unit weight in brain, After 2 min. / radioactive accumulation in brain two minutes after the injection (in words): 2 min
Method: Using Compound 1 (Example 10) and Compound 2 (Example 11), a time course change of radioactive accumulation in brain of male Wistar rats (7-week old) was measured.
A diethyl ether solution of Compound 1 (Example 10) prepared in Example 3, a diethyl ether solution of Compound 2 (Example 11) prepared in Example 6 and a diethyl ether solution of [^123I]-IMPY (Comparative Example 5) prepared in Reference Example 1 were each diluted with 10 mg/mL ascorbic acid-containing physiological saline solution to adjust to a radioactive concentration of 8-12 MBq/mL. 0.05 mL each of the prepared sample solutions was injected under thiopental anesthesia into the tail vein of the rats. The rats were sacrificed by bleeding from abdominal artery, and brains were removed and subjected to measurement of mass of brains and further subjected to measurement of radioactivity (hereinafter referred to as A in this Example) with a single channel analyzer (detector type: SP-20 manufactured by OHYO KOKEN KOGYO Co., Ltd.) 2, 5, 30 and 60 minutes after the injection. Further, the radioactivity level of the rest of the whole body was measured in the same manner as above (hereinafter referred to as B in this Example). Using these measurement results, radioactive distribution per unit weight of brain (% ID/g) at the respective time points were calculated in accordance with the following formula (3).
Three animals were used for the experiment at the respective time points.
Using Compound 4 and Compound 6, a time course change of radioactive accumulation in brain of male Wistar rats (7-week old) was measured.
Compound 4 (Example 22), Compound 6 (Example 23) and a solution of [^123I]-IMPY (Comparative Example 8) prepared above in Reference Example 1 were each diluted with a 10 mg/mL ascorbic acid-containing physiological saline solution to prepare solutions (20-31 MBq/mL in radioactive concentration). 0.05 mL each of the prepared sample solutions was injected under thiopental anesthesia into the tail vein of the respective Wistar rat (7-week old). The rats were sacrificed by bleeding from abdominal artery, and brains were removed and subjected to measurement of mass of brains and further subjected to measurement of radioactivity (hereinafter referred to as A in this Example) with a single channel analyzer (detector type: SP-20 manufactured by OHYO KOKEN KOGYO Co., Ltd.) 2, 5, 30 and 60 minutes after the injection. Further, the radioactivity level of the rest of the whole body was measured in the same manner as above (hereinafter referred to as B in this Example). Using these measurement results, radioactive distribution per unit weight of brain (% ID/g) at the respective time points were calculated in accordance with the following formula (5).

[3] = biological target: T1, amyloid (aggregated Aβ1-40) injected into amygdaloid nucleus (Homo sapiens, UniProt P05067); experiment: ex vivo autoradiogram using rats of amyloid injected model (Aβ1-40); assay type: in vivo, rat; details: brain slice 60 minutes after intravenous injection, Aβ1-40
T1 construct: Aβ1-40 (manufactured by Peptide Institute, INC.) was dissolved in phosphate buffer (pH 7.4); purchased Peptide Institute, INC
T1 sequence (P05067 672-711): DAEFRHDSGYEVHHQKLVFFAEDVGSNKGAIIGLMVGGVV
Method: (§1) (1) Aβ1-40 (manufactured by Peptide Institute, INC.) was dissolved in phosphate buffer (pH 7.4) and shaken at 37° C. for 72 hours, to obtain a 1 mg/mL suspension of aggregated Aβ (hereinafter referred to as amyloid suspension in this Example).
(§2) (2) 2.5 μL (corresponding to […]) of the amyloid suspension was injected into an amygdaloid nucleus on one side of a male Wistar rat (7-week old). As a control, 2.5 μL of a phosphate buffered physiological saline solution (pH 7.4) was injected into an amygdaloid nucleus on the other side of the rat. The rats were examined 1 day after the injection of the amyloid suspension and the phosphate buffered physiological saline solution (pH 7.4).
(§3) (3) [^123I]-IMPY was dissolved in a 10 mg/mL ascorbic acid-containing physiological saline solution to obtain a sample solution (29 MBq/mL in radioactivity concentration in the sample solution). This solution was injected under thiopental anesthesia into the rat through the tail vein (dosage: 0.5 mL, dosed radioactivity: 14.5 MBq equivalent).
(§4) (4) Brain was removed 60 minutes after the injection to prepare a brain slice of 10 μm in thickness with a microtome (type: CM3050S, manufactured by LEICA). The brain slice was exposed to an imaging plate for 20 hours, and then image analysis was carried out by use of a Bio-imaging Analyzer (type: BAS-2500; manufactured by FUJIFILM Corporation). […]

[4] = system: amyloid (aggregated Aβ1-40) injected into amygdaloid nucleus; experiment: as above; assay type: in vivo, rat; details: brain slice 60 minutes after intravenous injection
Method: as §1, §2, §3, §4

[5] = WO03/106439; cited from earlier work
[6] = biological target: T2, amyloid (aggregated Aβ1-42) injected into amygdaloid nucleus (Homo sapiens, UniProt P05067); experiment: confirmation of imaging of amyloid in brain (autoradiogram, Aβ1-42 injected rats); assay type: in vivo, rat; details: brain slice 60 minutes after intravenous injection, Aβ1-42
T2 construct: Aβ1-42 (manufactured by Wako) was dissolved in phosphate buffer (pH 7.4); purchased Wako
T2 sequence (P05067 672-713): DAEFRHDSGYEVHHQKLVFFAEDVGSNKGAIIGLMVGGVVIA
Method: (§5) (1) Aβ1-42 (manufactured by Wako) was dissolved in phosphate buffer (pH 7.4) and shaken at 37° C. for 72 hours, to obtain a 1 mg/mL suspension of aggregated Aβ (hereinafter referred to as amyloid suspension in the Examples).
as §2
as §3, with “Compound 1” for “[^123I]-IMPY”, “(22” for “(29”, “11-13” for “14.5”
(§6) (4) Brain was removed 60 minutes after the injection to prepare a brain slice of 10 μm in thickness with a microtome (type: CM3050S, manufactured by LEICA). The brain slice was exposed to an imaging plate for 20 hours, and then image analysis was carried out by use of a Bio-imaging Analyzer (type: BAS-2500; manufactured by FUJIFILM Corporation).
(§7) Thus, it was confirmed that amyloid was deposited on the slice (FIG. 6b).
(§8) The same procedures as in Example 12 were performed except using a solution of Compound 2 in a 10 mg/mL ascorbic acid as a sample solution (the radioactive concentration of the sample solution was 25 MBq/mL).
(§9) (1) Aβ1-42 (manufactured by Wako) was dissolved in phosphate buffer (pH 7.4) and shaken at 37° C. for 72 hours, to obtain 1 mg/mL of a suspension of aggregated Aβ (hereinafter referred to as amyloid suspension in the Examples).
(§10) (3) A sample solution (30 MBq/mL in radioactivity concentration, Example 24) in which Compound 4 was dissolved in a 10 mg/mL ascorbic acid-containing physiological saline solution and a sample solution (30 MBq/mL in radioactivity concentration, Example 25) in which Compound 6 was dissolved in a 10 mg/mL ascorbic acid-containing physiological saline solution were prepared. This solution was injected under thiopental anesthesia into the rat through the tail vein (dosage: 0.5 mL, dosed radioactivity: 11-15 MBq equivalent).
(§11) Thus, it was confirmed that amyloid was deposited on the slice (FIG. 12 and FIG. 13).

[7] = system: amyloid (aggregated Aβ1-42) injected into amygdaloid nucleus; experiment: as above; assay type: in vivo, rat; details: brain slice 60 minutes after intravenous injection
Method: as §5, §2
as §3, with “Compound 1” for “[^123I]-IMPY”, “(22” for “(29”, “11-13” for “14.5”
as §6, §7, §8, §9, §10, §11

[8] = rats, [11C]-labeled; cited from earlier work
[9] = Table 4 (Examples 8-9, Comparative Example 4)
[10] = Table 6 (Examples 20-21, Comparative Example 7)

Compound	logPoctanol value [1, 9]	Radioactive distribution per unit weight in brain, After 2 min. ([2]; Table 5) [% ID/g]	Radioactive distribution per unit weight in brain, After 5 min. ([2]; Table 5) [% ID/g]	Radioactive distribution per unit weight in brain, After 30 min. ([2]; Table 5) [% ID/g]	Radioactive distribution per unit weight in brain, After 60 min. ([2]; Table 5) [% ID/g]	radioactive accumulation in brain two minutes after the injection (in words) [2]	clearance from brain in 60 minutes (in words) [2]	accumulation of radioactivity in amygdaloid nucleus on the amyloid-injected side [6]	accumulation of radioactivity at sites other than the amyloid injected sites [7]	accumulation of radioactivity in amygdaloid nucleus on the physiological saline-injected side [7]	further results
CN(C)c1ccc(-c2cn3cc([123I])ccc3n2)cc1 [[^123I]-IMPY, reference compound]	1.9	1.19	0.97	0.23	0.09						logPoctanol value [1, 10]: 2.1; Radioactive distribution per unit weight in brain, After 2 min. ([2]; Table 7): 1.19 % ID/g; Radioactive distribution per unit weight in brain, After 5 min. ([2]; Table 7): 0.97 % ID/g; Radioactive distribution per unit weight in brain, After 30 min. ([2]; Table 7): 0.23 % ID/g; Radioactive distribution per unit weight in brain, After 60 min. ([2]; Table 7): 0.09 % ID/g; accumulation of radioactivity in amygdaloid nucleus on the amyloid-injected side [3]: marked accumulation of radioactivity; accumulation in white matter where amyloid was not injected [4]: non-specific accumulation was observed
CC(=C(C#N)C#N)c1ccc2cc(N(C)CCF)ccc2c1 [FDDNP, 2-(1-{6-[(2-fluoroethyl)(methyl)amino]-2-naphthyl}ethylidene)malononitrile]											reverse mutation test result [5]: positive
CN(C)c1ccc(-c2cn3cc(I)ccc3n2)cc1 [IMPY, 6-iodo-2-[4′-(N,N-dimethylamino)phenyl]imidazo[1,2-a]pyridine]											reverse mutation test result [5]: positive
2-[4′-(2″-hydroxyethoxy)phenyl]-6-[^123I]iodoimidazo[1,2-a]pyridine [Compound 1]	1.8	0.90	0.52	0.06	0.01	significant radioactive accumulation	rapidly clear away	marked accumulation of radioactivity	little radioactive accumulation	no significant accumulation of radioactivity	
2-(4′-ethoxyphenyl)-6-[^123I]iodoimidazo[1,2-a]pyridine [Compound 2]	2.1	0.89	0.66	0.13	0.04	significant radioactive accumulation	rapidly clear away	marked accumulation of radioactivity	some radioactive accumulation	no significant accumulation of radioactivity	
CNc1ccc(/C=C/c2ccc(O)cc2)cc1 [SB-13, (E)-4-methylamino-4′-hydroxystilbene]											clearance from normal tissues [8]: it cannot be said that the clearance is sufficiently fast
2-[3′-(2″-hydroxyethoxy)phenyl]-6-[^123I]iodoimidazo[1,2-a]pyridine [Compound 4]						significant accumulation	rapidly clear away	marked accumulation of radioactivity	little accumulation of radioactivity	no significant accumulation of radioactivity	logPoctanol value [1, 10]: 2.5; Radioactive distribution per unit weight in brain, After 2 min. ([2]; Table 7): 0.56 % ID/g; Radioactive distribution per unit weight in brain, After 5 min. ([2]; Table 7): 0.28 % ID/g; Radioactive distribution per unit weight in brain, After 30 min. ([2]; Table 7): 0.04 % ID/g; Radioactive distribution per unit weight in brain, After 60 min. ([2]; Table 7): 0.01 % ID/g
